Reference: patent US6465443B2, “Method for inhibiting bone resorption” (Merck & Co., Inc., priority 1997, dated 2002)

Key:
canine esophagus tissue = assay: Esophageal irritation potential, dog model (esophageal infusion, histopathology); format: in vivo; details: for Esophageal irritation potential: low dosages on consecutive days (Group 7, Group 8)
Protocol: The esophageal irritation potential of the bisphosphonates is evaluated using a dog model.
The following solutions are prepared:
(1) simulated gastric juice (pH about 2), i.e. the control solution.
(5) simulated gastric juice (pH about 2) containing about 0.20 mg/mL of risedronate sodium on a risedronic acid active basis.
(6) simulated gastric juice (pH about 2) containing about 4.0 mg/mL of tiludronate disodium on a tiludronic acid active basis.
The simulated gastric juice is prepared by dissolving about 960 mg of pepsin (L-585,228000B003, Fisher Chemical) in about 147 mL of 0.90 (wt %) NaCl (aqueous), adding about 3 mL of 1.0 M HCl (aqueous), and adjusting the volume to about 300 mL with deionized water. The pH of the resulting solution is measured and if necessary is adjusted to about 2 using 1.0 M HCl (aqueous) or 1.0 M NaOH (aqueous).
The animals used in the experiments are anesthetized and administered about 50 mL of the appropriate solution over about 30 minutes by infusion into the esophagus using an infusion pump and a rubber catheter. The following treatment experiments are run:
Group 1: This control group contains four animals. Each animal is administered a dosage of about 50 mL of simulated gastric juice [solution (1)] on each of five consecutive days. […]
Group 2: This group contains four animals. […]
Group 3: This group contains five animals. […] The animals are sacrificed about 24 hours after the dose is administered.
Group 4: This group contains five animals. […] The animals are sacrificed about 7 days after the dose is administered.
Group 5: This group contains six animals. […] The animals are administered a total of four dosages. The animals are sacrificed about 7 days after the last dose is administered.
Group 6: This group contains six animals. […] The animals are administered a total of eight dosages. The animals are sacrificed about four days after the last dose is administered.
Group 7: This group contains eight animals. Each animal is administered a dosage of about 50 mL of simulated gastric juice containing about 0.20 mg/mL of risedronate [solution (5)] on each of five consecutive days. […]
Group 8: This group contains four animals. Each animal is administered a dosage of about 50 mL of simulated gastric juice containing about 4.0 mg/mL of tiludronate [solution (6)] on each of five consecutive days. […]
The esophagus from each sacrificed animal is removed and prepared for histopathology using standard techniques by embedding the tissue in paraffin, staining with hematoxylin and eosin. The sections are examined microscopically.

bone resorption = details: early postmenopausal bone loss (Mortensen et al.); cited from earlier work
bone mineralization = details: doses used clinically; cited from earlier work
esophagus = details: oral administration, patients; cited from earlier work
[1] = Group 4: 0.80 mg/mL, 1X, sacrifice 7 days after dosing

O=P(O)(O)C(O)(Cc1cccnc1)P(=O)(O)O [Risedronate, 1-hydroxy-2-(3-pyridinyl)-ethylidene-1,1-bisphosphonic acid]
Histo-pathology (esophagus) (canine esophagus tissue; Group 7 (n = 8): 0.20 mg/mL, about 50 mL in simulated gastric juice, 1X daily for 5 days, sacrifice immediately after last dosing, listed as risedronate): deep ulceration of the epithelial surface and marked submucosal inflammation and vacuolation
Animals with deep ulceration of epithelial surface (canine esophagus tissue; Group 7: 0.20 mg/mL, 1X daily for 5 days, sacrifice immediately after last dosing): (4 of 8 animals).
Esophageal irritation potential (canine esophagus tissue): high
Antiresorptive efficacy of cyclic dosing relative to continuous daily dosing (bone resorption): cyclic dosing is actually less effective than continuous daily dosing

CC(O)(P(=O)(O)O)P(=O)(O)O [etidronate, 1-hydroxyethane-1,1-diphosphonic acid]
Effect on bone mineralization (bone mineralization): impairs mineralization at doses used clinically

NCCC(O)(P(=O)(O)O)P(=O)(O)O [pamidronate, 3-amino-1-hydroxypropylidene-1,1-bisphosphonic acid]
Adverse gastrointestinal (esophageal) effects associated with use (esophagus): associated with esophageal ulcers

O=P(O)(O)C(Sc1ccc(Cl)cc1)P(=O)(O)O [Tiludronate, (4-chlorophenyl)thiomethane-1,1-disphosphonic acid]
Histo-pathology (esophagus) (canine esophagus tissue; Group 8 (n = 4): 4.0 mg/mL, about 50 mL in simulated gastric juice, 1X daily for 5 days, sacrifice 24 hours after last dosing (table; text: immediately)): Slight submucosal
Histo-pathology (esophagus) (canine esophagus tissue; Group 8 (n = 4): 4.0 mg/mL, about 50 mL in simulated gastric juice, 1X daily for 5 days, sacrifice 24 hours after last dosing (table; text: immediately), listed as tiludronate): slight ulceration of the epithelial surface and slight submucosal inflammation and vacuolation
Animals with slight submucosal inflammation and vacuolation (canine esophagus tissue; Group 8: 4.0 mg/mL, 1X daily for 5 days): vacuolation (3 of 4
Esophageal irritation potential (canine esophagus tissue): high

NCCCC(O)(P(=O)(O)O)P(=O)(O)O [Alendronate, 4-amino-1-hydroxybutylidene-1,1-bisphosphonic acid monosodium trihydrate]
Histo-pathology (esophagus) (canine esophagus tissue; Group 2 (n = 4): 0.20 mg/mL, about 50 mL in simulated gastric juice pH about 2, 1X daily for 5 days, sacrifice immediately after last dosing, listed as alendronate, monosodium trihydrate): deep ulceration of the epithelial surface and marked submucosal inflammation and vacuolation
Histo-pathology (esophagus) (canine esophagus tissue; Group 3 (n = 5): 0.80 mg/mL, about 50 mL in simulated gastric juice, 1X, sacrifice 24 hours after dosing, listed as alendronate, monosodium trihydrate): intact epithelial surface with very slight submucosal inflammation and vacuolation
Histo-pathology (esophagus) (canine esophagus tissue; Group 3 (n = 5): 0.80 mg/mL, about 50 mL in simulated gastric juice, 1X, sacrifice 24 hours after dosing, monosodium trihydrate): Intact epithelial
Histo-pathology (esophagus) (canine esophagus tissue; Group 4 (n = 5): 0.80 mg/mL, about 50 mL in simulated gastric juice, 1X, sacrifice 7 days after dosing, listed as alendronate, monosodium trihydrate): intact epithelium with either minimal inflammation (two of the five animals) or no inflammation (three of the five animals) and no vacuolation
Animals with minimal inflammation (canine esophagus tissue; [1]): inflammation (2 of 5
Animals with no inflammation (canine esophagus tissue; [1]): inflammation (3 of 5
Histo-pathology (esophagus) (canine esophagus tissue; Group 5 (n = 6): 0.80 mg/mL, about 50 mL in simulated gastric juice, 1X weekly for a total of 4 doses, sacrifice 7 days after last dosing, listed as alendronate, monosodium trihydrate): normal with an intact epithelium and absence of inflammatory cells in the submucosa
Histo-pathology (esophagus) (canine esophagus tissue; Group 5 (n = 6): 0.80 mg/mL, about 50 mL in simulated gastric juice, 1X weekly for a total of 4 doses, sacrifice 7 days after last dosing, monosodium trihydrate): Intact epithelium with
Histo-pathology (esophagus) (canine esophagus tissue; Group 6 (n = 6): 0.40 mg/mL, about 50 mL in simulated gastric juice, 2X weekly for 4 weeks, sacrifice immediately after last dosing (table; text: about four days after), listed as alendronate, monosodium trihydrate): deep ulceration of the epithelial surface and marked submucosal inflammation and vacuolation
Adverse gastrointestinal (esophageal) effects associated with use (esophagus): associated with esophagitis and/or esophageal ulcers
